# Data as given in patent US20180325840A1, “COMPOSITIONS AND METHODS FOR PREVENTING OR TREATING FATTY PANCREAS OR AMELIORATING PANCREAS DISEASES CAUSED BY FATTY PANCREAS, DIABETES MELLITUS OR OTHER RELATED DISORDERS” (NATIONAL DEFENSE EDUCATION AND RESEARCH FOUNDATION, priority 2015, published 2018).
# Key:
# Type in all cases: in vivo
# B6 mice [1] = assay: Fasting insulin concentration (ELISA) in high-fat diet mice; conditions: 2.5 mg/kg, 4 weeks of administration
# Experimental: (§1) The experimental animals employed were B6 mice. The number of test animals in each group of the pre-test was four or more, and the number of test animals in each group of the confirmation test was twelve or more. Male mice having a weight of 18 to 23 g were bred in an animal room with a normal light and dark cycle (7:00 am to 7:00 pm being the bright period, and the rest being the dark period) at a temperature of 23±2° C. and a relative humidity of 55±15%. After the animals were purchased from Lesco Biotech Co., Ltd. (Taipei) and housed at the National Defense Animal Center, the animal experiments were conducted following the Experimental Guide of National Health Research Institute. First, the animals were fed with 3-5 grams of general diet daily, and the water was supplied infinitely. After 1 to 2 weeks of breeding, the healthy state was observed. The body weight was recorded once a week.
# (§2) The test animals were randomly grouped into blank control (Blank), high-fat control (HFD), positive control (PS), and test group. The blank control was given a normal diet; the high-fat control was given a high-fat diet; the positive control was given a high-fat diet and tube fed with silymarin (5 mg/kg/day) (Iranian Journal of Pharmaceutical Research (2016), 15 (3): 493-500; Life Sciences 75 (2004) 2167-2180; and Pharm Biol. 2016 Jul. 8:1-6); and the test group was given a high-fat diet and tube fed with the test ingredient individually.
# (§3) The blank control was fed with a normal diet arbitrarily for 12 weeks. The high-fat control, the positive control, and the test group were fed with a high-fat diet arbitrarily for 12 weeks. After 8 weeks of feeding, the blank control and the high-fat control were tube fed with deionized water once a day. The positive control was tube fed with silymarin once a day. The test group was tube fed with test compound(s) once a day for 4 weeks.
# 1.4.4 Analysis of Biochemical Functions of the Pancreas: Analysis of Fasting Insulin Concentration
# At the end of the test (at the twelfth week), the mice were fasted to collect the blood following the operation instructions of the mouse ultrasensitive insulin ELISA kit (ALPCO).
# (§4) All data were expressed as mean±standard deviation (SD), and the test results were calculated using the ANOVA test method to determine whether there was a statistically significant difference by using the Statistical Package of the Social Science program (Version 13, SPSS Inc.) software package. Subsequently, post hoc test least significant difference method was used to perform multiple comparisons to confirm the significant differences between the groups. The significant difference between the averages of the groups was p<0.05.
# B6 mice [2] = assay: Intraperitoneal glucose tolerance test (IPGTT) in high-fat diet mice; conditions: 2 g/kg glucose IP, blood glucose vs. time, 2.5 mg/kg, 4 weeks of administration
# Experimental: as §1, with “Male mice having a weight of 18 to 23 g were bred in an animal room with a normal light and dark cycle (7:00 am to 7:00 pm being the bright period, and the rest being the dark period) at a temperature of 23±2° C. and a relative humidity of 55±15%.” left out
# The test animals were randomly grouped into blank control (Blank), high-fat control (HFD), positive control (PS), and test group.
# as §3
# 1.4.3 Analysis of Biochemical Functions of the Pancreas: Intraperitoneal Glucose Tolerance Test (IPGTT)
# The mice were moved into a clean cage and fasted overnight. There was no food or feces at the feeding funnel or the bottom of the clean cage to ensure that the animals may get drinking water at all times. The body weight of the mice was measured, and the volume of the glucose solution required for intraperitoneone (IP) injection was calculated (based on a concentration of 250 mg/mL and 2 g of glucose per kg of mouse weight, the volume (μl) required would be 8× body weight (g)). The mice were moved out and injected intraperitoneally with an appropriate amount of glucose solution, and the injection time was recorded. Blood samples were taken from the tail of the mice at 0, 15, 30, 60, 120 and 150 minutes after the glucose solution was injected. The concentration of blood glucose was measured, and the blood glucose analysis was performed using the Roche's ACCU-CHEK Active blood glucose meter.
# as §4
# B6 mice [3] = assay: Serum (plasma) triglyceride (TG) in high-fat diet mice; conditions: 2.5 mg/kg, 4 weeks of administration
# Experimental: as §1, §2, §3
# Before the start of the test and at the 8th and 12th week after the start of the test, blood was collected from the cheek or heart. All the animals were weighed and then sacrificed at the end of the test, and blood was collected from the cheek or heart again. The blood samples of mice were allowed to stand at room temperature for 1 hour to coagulate, and then centrifuged at 15,700×g by a frozen centrifuge at 4° C. for 5 minutes to separate the serum.
# 1.4.1 Analysis of Serum Triglyceride (TG) and Total Cholesterol (TCHO, TC)
# Triglyceride (TG) and total cholesterol (TCHO, TC) in the serum were measured by the automatic blood biochemical analyzer.
# as §4
# B6 mice [4] = assay: Triglyceride (TG) and total cholesterol (TC) in pancreatic tissue of high-fat diet mice; conditions: 2.5 mg/kg tube fed once a day, 4 weeks of administration
# Experimental: as §1, §2, §3
# 1.4.6 Analysis of Triglyceride (TG) and Total Cholesterol (TCHO, TC) in Pancreatic Tissue
# After the mice were sacrificed, the pancreas was taken out and weighed to compare the ratios of pancreas weight to body weight. The remaining pancreas was frozen and preserved, and the contents of triglyceride and the total cholesterol in the pancreas were measured.
# as §4
# B6 mice [5] = assay: Homeostasis model assessment of insulin resistance (HOMA-IR) in high-fat diet mice; conditions: 2.5 mg/kg, 4 weeks of administration
# Experimental: as §1, §2, §3
# 1.4.5 Analysis of Biochemical Functions of the Pancreas: Homeostasis Model Assessment of Insulin Resistance (HOMA-IR)
# The mice were fasted to collect the blood at the end of the test (at the twelfth week), and the concentrations of blood glucose and insulin were measured and calculated according to the following formula: […]
# as §4
# B6 mice [6] = assay: Blood glucose analysis (GLU) in high-fat diet mice; conditions: fasted overnight, 2.5 mg/kg, 4 weeks of administration
# Experimental: as §1, §2, §3
# 1.4.2 Analysis of Biochemical Functions of the Pancreas: Blood Glucose Analysis (GLU)
# Blood glucose analysis was performed with Roche's ACCU-CHEK Active blood glucose meter. One day before blood collection, mice were fasted overnight. The code card of the blood glucose test paper was inserted into the blood glucose meter, and then the blood glucose test paper was inserted. After the blood drop pattern appeared on the meter, a drop of blood was taken from in vein at the cheek of the mouse with a buccal needle and then dropped into the blood glucose test paper. The blood glucose data shown on the blood glucose meter were recorded.
# as §4
smiles,measurement,setting,value
O=C(CCc1ccc(O)cc1)c1c(O)cc(O)cc1O[C@@H]1O[C@H](CO)[C@@H](O)[C@H](O)[C@H]1O [phloridzin],fasting insulin concentration,B6 mice [1],1.1 ± 0.3 ng/mL
same,AUC of IPGTT,B6 mice [2],51.3 ± 8.9 g·h/dL
same,TG (plasma triglyceride),B6 mice [3],148.3 ± 31.4 mg/dL
same,pancreatic TC,B6 mice [4],3.3 ± 1.1 mg/g pancreatic tissue
same,pancreatic TG,B6 mice [4],23.3 ± 24.0 mg/g pancreatic tissue
same,HOMA-IR,B6 mice [5],0.6 ± 0.2
same,GLU,B6 mice [6],216.2 ± 26.4 mg/dL
